2 compounds from patent US11883426B2, “Treatment for methamphetamine cardiovascular disease” (priority 2020, dated 2024) can be followed below.

Structures can show the parent of a compound that is named as a salt.

Data set [1] is described as follows: Sulfide release with Sugammadex in human plasma. The following applies: human blood. The method, then: (§1) . Free sulfide was measured using 50 μl of plasma with MBB; whereas for detection of ALS and BSS, 50 μl of plasma was added separately into two sets of 4 mL BD vacutainer tubes. […]. Following a 30-min incubation on a nutator, the reaction liquid was removed, and the evolved sulfide gas subsequently trapped by adding 500 μl of 100 mM Tris-HCl buffer (pH 9.5, 0.1 mM DTPA) into the BD vacutainer tube and incubated again for 30 min on a nutator mixer. […]. Determination of ALS was made by reacting plasma samples with acidic phosphate buffer alone and subsequent trapping of evolved sulfide. Measurement of BSS was determined by subtracting the acid labile value from the total sulfide protocol containing TCEP reductant treatment under acidic conditions. […]

A short description of data set [2]: Sulfide release with Sugammadex in WT and CSE knockout mice. The data set is classed as in vivo, mouse. The following applies: single injection 0.2 mg/kg. The protocol: . Free sulfide was measured using 50 μl of plasma with MBB; whereas for detection of ALS and BSS, 50 μl of plasma was added separately into two sets of 4 mL BD vacutainer tubes. […]. Following a 30-min incubation on a nutator, the reaction liquid was removed, and the evolved sulfide gas subsequently trapped by adding 500 μl of 100 mM Tris-HCl buffer (pH 9.5, 0.1 mM DTPA) into the BD vacutainer tube and incubated again for 30 min on a nutator mixer. […]. Determination of ALS was made by reacting plasma samples with acidic phosphate buffer alone and subsequent trapping of evolved sulfide. Measurement of BSS was determined by subtracting the acid labile value from the total sulfide protocol containing TCEP reductant treatment under acidic conditions. […].
In clinical practice, sugammadex is administered at a dose of 4 mg/kg to up to 16 mg/kg for its current use. In the inventors' mice studies, the inventors used a single injection of 0.2 mg/kg for pharmacokinetic studies, which was a 20 to 80 times lower than the clinical usage of sugammadex.

The target in data set [3] is T1, CSE (Homo sapiens, UniProt P32929). In words: CSE activity with Sugammadex in human plasma. The arrangement: from tissue; host or cells: human blood plasma (lithium heparin). The protocol: (§2) 2.9 Cystathionine γ-lyase (CSE) activity measurement: CSE activity was measured as previously reported. Plasma or tissue lysates were incubated with 2 mM cystathionine, 0.25 mM pyridoxal 5′-phosphate in 100 mM Tris-HCl buffer (pH 8.3) for 60 min at 37° C. 10% Trichloroacetic acid was added into reaction mixture. After centrifugation, the supernatant was mixed with 1% ninhydrin reagent and incubated for 5 min in a boiling-water bath. After heating, the solution was cooled on ice for 2 minutes and color reaction development measured 20 minutes at 455 nm using a spectrophotometer (Biotek). CSE activity was assessed by cystathionine consumption and enzyme activity expressed as fold change calculated from nanomoles of cystathionine consumed per mg of total protein per hour of incubation.
T1 sequence (P32929 whole entry): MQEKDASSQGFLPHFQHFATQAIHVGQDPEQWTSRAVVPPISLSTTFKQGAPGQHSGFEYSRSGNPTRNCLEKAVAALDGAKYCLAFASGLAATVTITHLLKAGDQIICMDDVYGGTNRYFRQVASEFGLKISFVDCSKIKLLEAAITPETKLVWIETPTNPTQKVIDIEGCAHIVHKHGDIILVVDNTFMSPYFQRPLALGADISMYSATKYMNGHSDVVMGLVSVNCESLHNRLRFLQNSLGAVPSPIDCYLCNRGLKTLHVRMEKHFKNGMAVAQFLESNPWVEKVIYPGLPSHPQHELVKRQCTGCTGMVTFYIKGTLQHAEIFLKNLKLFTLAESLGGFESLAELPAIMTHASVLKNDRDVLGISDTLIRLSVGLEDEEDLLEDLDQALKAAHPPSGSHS

The test system of the next data set is femoral artery. The conditions noted are these: mouse, in vivo.
The test system of the next data set is skeletal muscle tissue. Type of data set: in vivo, mouse.
Data set [4] addresses T1, CSE. In words: CSE enzyme activity in endothelial cells. The conditions noted are these: HUVECs, 100 μM, 30 min, vs PBS control. The arrangement: host or cells: HUVEC. Type of data set: cell-based. The method, then: 2.2 Cell culture and treatments: Human umbilical vein endothelial cells (HUVECs) were purchased from Lifeline Cell Technology (Cat. No. FC-0044) and cultured in VascuLife® Basal Medium (Cat. No. LM-0002) supplemented with the appropriate LifeFactors® Kit (No. LL-0003). All cells were grown in tissue culture flasks at 37° C. and 5% CO2. HUVECs from passages 2-4 were used in the experiments.
as §2

Data set [5] deals with H2S. Type of data set: in vivo, mouse.
Data set [6] concerns NO. The experiment in a line: Total NO in plasma of human methamphetamine users. The following applies: methamphetamine-users vs healthy controls.
The subject of data set [7] is H2S. In words: Sulfide pools in plasma of human methamphetamine users. The conditions noted are these: methamphetamine-users vs age matched healthy controls. The method, then:
2.6 Human blood collection: Human subjects were interviewed, and medical record data were collected for analysis of methamphetamine-use. Blood samples were collected from already-established catheterization into 6 mL BD vacutainer tubes with lithium heparin. Samples were transported to the lab within 15 min on ice and were centrifuged at 1500 RCF for 4 min at 4° C.
as §1

For data set [8], the system named is CSE. The data set is classed as in vivo, mouse. The following applies: skeletal muscle tissues of methamphetamine treated mice.
The test system of data set [9] is CSE, p-eNOS and total eNOS. In words: Western blot of mouse skeletal muscle. Type of data set: in vivo. The conditions noted are these: methamphetamine treated mice. The method, then: (§3) 2.4 ‘Binge and crash’ mouse methamphetamine model: Twelve-week-old male WT (C57BL6/J) male mice were used for these experiments. Mice were exposed to methamphetamine according to a known protocol that models binge methamphetamine exposure in humans. C57BL/6 male mice received 0-6 mg/kg methamphetamine (Methamphetamine HCl, Sigma-Aldrich, St. Louis, Mo.) through subcutaneous (s.c.) injection five days in a week for four weeks. Methamphetamine was dissolved in a sterile saline (Sigma-Aldrich) solution (0.9% w/v NaCl). Vehicle treated mice received the same volume of saline at all-time points for four weeks. Briefly, methamphetamine-exposed and saline-control mice were injected subcutaneously with methamphetamine or saline in a volume of 5 ml/kg with an insulin syringe. Alternating sites of injection were used to avoid any possible damage to tissue and possible stress of the animal. The dose of methamphetamine was escalated over the course of the first cycle, which occurs during the first week of injections (days 1-5) followed by three weeks of repeated cycles of meth injections (days 8-12, 15-19, and 22-26). Mice received 4 injections per day, 2 hours apart with doses of meth including 0, 1, 2, 3, 4, 5, and 6 mg/kg subcutaneously. At the end of the 4 weeks, mice were sacrificed by isoflurane overdose, plasma and tissue were harvested.
2.10 Western blot analysis: Mouse skeletal muscle tissues were homogenized in a solution containing 50 mM Tris buffer (pH 7.4), 2 mM EDTA, 5 mM EGTA, 0.1% SDS, a protease inhibitor cocktail (Roche, Indianapolis, Ind.), and phosphatase inhibitor cocktail type I and II (Sigma, Saint Louis, Mo.). Homogenates were centrifuged at 500×g for 15 min and supernatants were collected. Protein concentrations were analyzed using the Bradford protein assay (BIORAD, Hercules, Calif.). […] Chemiluminescent bands were detected and quantified using NIH Image J software.

For the next data set, the system named is superoxide. The experiment in a line: Oxidative stress measurement (DHE staining) in skeletal muscle. The data set is classed as in vivo, mouse. The following applies: skeletal muscle sections, methamphetamine vs saline. The method, then:
as §3, with “The dose of methamphetamine was escalated over the course of the first cycle, which occurs during the first week of injections (days 1-5) followed by three weeks of repeated cycles of meth injections (days 8-12, 15-19, and 22-26). Mice received 4 injections per day, 2 hours apart with doses of meth including 0, 1, 2, 3, 4, 5, and 6 mg/kg subcutaneously. At the end of the 4 weeks, mice were sacrificed by isoflurane overdose, plasma and tissue were harvested.” left out
2.12 Oxidative Stress measurement: Levels of oxidative stress were measured by staining skeletal muscle tissue sections with 5 μM Dihydroethidium (DHE; Sigma-Aldrich, CA USA) and visualized using a NIKON ECLIPSE Ti-E microscope (Nikon Instruments Inc., Melville, N.Y.) for image acquisition. […]

Data set [10] relates to NO. The experiment in a line: NO metabolite measurements in mouse plasma and skeletal muscle. Type of data set: in vivo.
The mark [11] stands for this setting: skeletal muscle, methamphetamine treated mice.
Where [12] appears, read: skeletal muscle, methamphetamine treatment.
The mark [13] stands for this setting: 4-week binge and crash methamphetamine.
Setting [14] is: 4-week binge and crash methamphetamine vs controls.

Turning to `O=C([O-])CCSC[C@@H]1OC2O[C@@H]3[C@@H](O)[C@H](O)C(O[C@@H]4[C@@H](O)[C@H](O)C(O[C@@H]5[C@@H](O)[C@H](O)C(O[C@@H]6[C@@H](O)[C@H](O)C(O[C@@H]7[C@@H](O)[C@H](O)C(O[C@@H]8[C@@H](O)[C@H](O)C(O[C@@H]9[C@@H](O)[C@H](O)C(O[C@@H]1[C@@H](O)[C@@H]2O)O[C@H]9CSCCC(=O)[O-])O[C@H]8CSCCC(=O)[O-])O[C@H]7CSCCC(=O)O)O[C@H]6CSCCC(=O)O)O[C@H]5CSCCC(=O)O)O[C@H]4CSCCC(=O)[O-])O[C@H]3CSCCC(=O)[O-].[Na+].[Na+].[Na+].[Na+].[Na+]` [Sugammadex], the bound sulfane sulfur entry in [1] is listed as “increases”. Further, the total sulfide levels result in data set [1] was “increases”. In addition, the plasma sulfide levels result in data set [2] (CSE knockout mice) and in [2] (wild type mice) was “increases” in each case. Besides, the “plasma CSE activity” value at CSE [3] is listed as “increased”.

In the case of `CN[C@@H](C)Cc1ccccc1` [methamphetamine, Methamphetamine hydrochloride], in the data set on femoral artery, the “flow mediated vasodilation responses” value is recorded as “significantly blunted” and the “mean blood flow velocity recovery after occlusion removal” value is given as “significantly blunts”. Besides, the eNOS expression entry in the data set on skeletal muscle tissue (methamphetamine treated mice) is reported as “no change”. In addition, in the data set with skeletal muscle tissue (setting [11]), the CBS gene expression entry is given as “no significant changes” and the CSE gene expression result is given as “significantly decreased”. Besides, in the data set with skeletal muscle tissue (setting [12]), the ICAM-1 expression result is “concomitant increase” and the VCAM-1 expression result is “concomitant increase”. Also, in the data set with skeletal muscle tissue (skeletal muscles, methamphetamine treatment), the NOx4 expression entry is “marginal increase”. The CSE enzyme activity result on CSE [4] is listed as “substantially decreased”. For the same compound, the “reduction in plasma total sulfide” value in the data set on H2S [5] (setting [13]) worked out at 3 fold. In addition, in the data set with H2S [5] (setting [14]), the plasma acid-labile sulfide result is “significant reduction” and the “plasma bound sulfane sulfur” value is recorded as “significant reduction”. Further, the “total NO levels” value in the data set on NO [6] is on record as “trend of decreasing”. For the same compound, in the data set with H2S [7], the acid-labile sulfide levels result is on record as “decrease”. Also, the CSE activity result with CSE [8] is given as “significant decrease”. Besides, in [9], the CSE protein expression entry is “decreased expressions”, the p-eNOS protein expression entry is “decreased expressions” and the “total eNOS protein” value is given as “no change”. In addition, the “DHE fluorescence (oxidative stress)” value with superoxide is listed as “significant increase”. Besides, in the data set on NO [10] (setting [13]), the “plasma S-nitrosothiol (bound pool)” value was “decreased”, the plasma free nitrite result is reported as “decreased” and the “plasma total NO levels” value is reported as “two-fold reduction”. Also, the “skeletal muscle total NO” value in the data set with NO [10] (methamphetamine treated mice vs saline) was “significantly reduced”.
